Experiments:
[1] = Absorptive and emissive properties of flavylium heptamethine dyes in dichloromethane; type: physicochemical
From the text: As the highest energy absorber of the series, the 7-methoxy substituted dye 10 is ˜44 nm blue shifted from Flav7, with absorption at 984 nm, close to the 980 nm laser line, and emission at 1008 nm. […] The diphenylamino substituted 7 is ˜23 nm red-shifted compared to Flav7, while julolidine derivative 3 is red-shifted by ˜35 nm with absorption at 1061 nm and emission at 1088 nm. Due to its absorption maximum and high brightness (εmax), 3 was a promising candidate for SWIR imaging with 1064 nm excitation and was named Julo7. […] This increased understanding of the relationship between structural and absorption/emission wavelengths sets-up opportunities for predicting photophysical properties of the scaffold.
The absorption coefficients (ε) of the series vary from ˜110,000 to ˜240,000 M^−1cm^−1. […] The fluorescence quantum yields (φF) (relative measurements to IR-26=0.05%) remain rather constant, in the 0.4 to 0.6% range, despite red- or blue-shifted behavior, providing a platform for intensity-matched probes. […]
For excitation multiplexing, we are most interested in properties of the series of polymethine fluorophores when exited at 980 and 1064 nm. Thus, we calculated brightness (εA) values for each dye using the absorbance coefficient at the respective wavelengths. […]

[2] = Three-color excitation-multiplexed SWIR imaging of awake mouse; type: in vivo; conditions: 80 minutes after i.p. 10 micelles and i.v. 3 micelles and ICG; top-view
From the text: To obtain real-time images in three colors, heptamethine 10 was encapsulated in PEG-coated micelles to impart water solubility. In vivo, we introduced 10 micelles by intraperitoneal injection, and 3 micelles followed by ICG by intravenous injection. […] After establishing both the technology and the molecular tools for multiplexed real-time observation of function in mice, the next goal was to enhance existing SWIR imaging applications.
Physiological properties such as heart-rate, respiratory rate, thermoregulation, metabolism, and the function of the central nervous system, are highly impacted by anesthesia. […] Due to frame rates which are faster than macroscopic movements in animals, the heart rate and respiratory rate in awake animals can be quantified. […] The method allows physiology to be monitored with minimal perturbation of the animal's usual environment. […] The real-time collection can be visualized by observing close time-points in which a continuous movement is monitored without visual aberrations (FIG. 16A). In addition to assessing natural physiology, these tools foreshadow more complex experiments in which the location of multiple probes could be monitored over long periods of time, non-invasively and without the need for anesthesia.

[3] = Two-color SWIR lymphatic imaging of narcotized mouse; type: in vivo; conditions: intradermally into footpads and base of tail, after 30 min
From the text: The FIGS. 9A, 9B and 9C show merged frames representing the lymphatic system of a narcotized mouse in two-color real-time acquisition. With detector exposure time of 20 ms, a frame rate of 21 fps is achieved with the developed system. […] Then, Julo 7 micelles have been injected intravenously. The lymphatic functional imaging is later enhanced by the assignment of two distinct colors.
Light Source (785 nm laser & 1064 nm laser sequentially triggered, pulse length=21 ms)→Collimator→Mirror→1100 nm Short-pass Filter→Engineered Diffuser→Sample. The arrows represent the light path. Accordingly, the light path has been set up as follows: from Light Source (785 nm laser & 1064 nm laser sequentially triggered, pulse length=21 ms) to Collimator to Mirror to 1100 nm Short-pass Filter to Engineered Diffuser to Sample.
Sample→3×f=500 mm C-Coated lenses→Silver Mirror→1000 nm Long-pass Filter→2×f=200 mm C-coated lenses→InGaAs Detector. The arrows represent the light path. Accordingly, the light path has been set up as follows: from Sample to 3×f=500 mm C-Coated lenses to Silver Mirror to 1000 nm Long-pass Filter to 2×f=200 mm C-coated lenses to InGaAs Detector.
Sample: ICG (aqueous, 13 nmol intradermally [footpads and base of tail]) and Julo7 (micelles, 70 nmol intravenously).

[4] = stated as known property; cited from earlier work
[5] = reference value used for relative measurements; cited from earlier work

Structure (SMILES): CN(C)c1ccc2c(c1)OC(c1ccccc1)=C/C2=C\C=C1/CCCC(/C=C/c2cc(-c3ccccc3)[o+]c3cc(N(C)C)ccc23)=C1Cl [dye 1]
- λmax,abs (absorption) [1]: 1027 nm
- λmax,em (emission) [1]: 1053 nm

Structure (SMILES): CC1(C)C(/C=C/C=C/C=C/C=C2\N(CCCCS(=O)(=O)[O-])c3ccc4ccccc4c3C2(C)C)=[N+](CCCCS(=O)(=O)[O-])c2ccc3ccccc3c21.[Na+] [ICG, indocyanine green]
- location of probe in awake mouse [2]: exclusively in the liver
- conduction through the lymphatic vessels [3]: efficiently conducted through the lymphatic vessels
- clearance route [4]: clears efficiently and exclusively from the liver

Structure (SMILES): ClC1=C(/C=C/c2cc(-c3ccccc3)[s+]c3ccccc23)CCC/C1=C\C=C1/C=C(c2ccccc2)Sc2ccccc21.[O-][Cl+3]([O-])([O-])[O-] [IR-26]
- fluorescence quantum yield of reference standard [5]: 0.05%

From patent US12618846B2, “Method and device for imaging fluorescent proteins in near- and short-wave infrared” (HELMHOLTZ ZENTRUM MÜNCHEN—DEUTSCHES FORSCHUNGSZENTRUM FÜR …, priority 2019, dated 2026)
